# Laboratory results: ChEMBL document CHEMBL1921749, “5-Lipoxygenase-activating protein (FLAP) inhibitors. Part 4: development of 3-[3-tert-butylsulfanyl-1-[4-(6-ethoxypyridin-3-yl)benzyl]-5-(5-methylpyridin-2-ylmethoxy)-1H-indol-2-yl]-2,2-dimethylpropionic acid (AM803), a potent, oral, once daily FLAP inhibitor” (J Med Chem, 2011)
# pIC50: −log10 of the molar value.
# Columns and labels:
# [1] = biological target: T1, Arachidonate 5-lipoxygenase-activating protein (Homo sapiens, UniProt P20292); experiment: Displacement of [3H]-3-[5-(pyrid-2-ylmethoxy)-3-tert-butylthio-1-benzylindol-2-yl]-2,2-dimethylpropionic acid from FLAP in human polymorphonuclear cell membranes after 1 hr by scintillation counting
# T1 sequence (P20292 whole entry): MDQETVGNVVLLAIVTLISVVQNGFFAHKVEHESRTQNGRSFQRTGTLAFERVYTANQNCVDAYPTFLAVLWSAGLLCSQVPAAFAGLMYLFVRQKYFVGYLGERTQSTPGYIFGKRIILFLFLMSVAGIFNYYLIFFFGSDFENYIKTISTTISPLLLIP
# [2] = biological target: T2, Prostaglandin G/H synthase 1 (Homo sapiens, UniProt P23219); experiment: Inhibition of COX1-mediated TXB2 production in human whole blood after 5 hrs by competitive enzyme immunoassay
# [3] = biological target: T1, Arachidonate 5-lipoxygenase-activating protein; experiment: Inhibition of FLAP in human whole blood assessed as inhibition of calcium ionophore A23187-induced LTB4 production preincubated for 15 mins by ELISA
# [4] = biological target: T2, Prostaglandin G/H synthase 1; experiment: Inhibition of COX1-mediated TXB2 production in human whole blood after 15 mins by competitive enzyme immunoassay
# [5] = biological target: T1, Arachidonate 5-lipoxygenase-activating protein; experiment: Inhibition of FLAP in human whole blood assessed as inhibition of calcium ionophore A23187-induced LTB4 production preincubated for 5 hrs by ELISA
# [6] = biological target: T1, Arachidonate 5-lipoxygenase-activating protein; experiment: Inhibition of FLAP in human peripheral leukocytes assessed as inhibition of calcium ionophore A23187-induced LTB4 production after 10 mins by ELISA; assay type: cell-based
# [7] = biological target: T3, Arachidonate 5-lipoxygenase-activating protein (Homo sapiens) (UniProt P20292); experiment: Ratio of IC50 for FLAP in human whole blood assessed as inhibition of calcium ionophore A23187-induced LTB4 production preincubated for 15 mins to IC50 for FLAP in human whole blood assessed as inhibition of calcium ionophore A23187-induced LTB4 production preincubated for 5 hrs
# T3 sequence (whole entry): T1 sequence (P20292 whole entry)
# [8] = Terminal half life in Sprague-Dawley rat at 2 mg/kg, iv; assay type: ADME, organism-based; set-up: dose 2 mg/kg, route intravenous; conditions: in vivo, read-out: beta t1/2 (converted)
# [9] = Cmax in Sprague-Dawley rat at 10 mg/kg, po; assay type: ADME, organism-based; set-up: dose 10 mg/kg, route oral; conditions: in vivo
# [10] = Volume of distribution at steady state in Sprague-Dawley rat at 2 mg/kg, iv; assay type: ADME, organism-based; set-up: dose 2 mg/kg, route intravenous; conditions: in vivo, read-out: Vdss
# [11] = Clearance in Sprague-Dawley rat at 2 mg/kg, iv; assay type: ADME, organism-based; set-up: dose 2 mg/kg, route intravenous; conditions: in vivo
# [12] = Oral bioavailability in Sprague-Dawley rat at 10 mg/kg; assay type: ADME, organism-based; conditions: in vivo
# [13] = AUC in Sprague-Dawley rat at 10 mg/kg, po; assay type: ADME, organism-based; set-up: dose 10 mg/kg, route oral; conditions: plasma
# Cytochrome P450 2C9 = Cytochrome P450 2C9 (Homo sapiens, UniProt P11712); experiment: Inhibition of human CYP2C9; assay type: ADME
# Cytochrome P450 2D6 = Cytochrome P450 2D6 (Homo sapiens, UniProt P10635); experiment: Inhibition of human CYP2D6; assay type: ADME
# Cytochrome P450 3A4 = Cytochrome P450 3A4 (Homo sapiens, UniProt P08684); experiment: Inhibition of human CYP3A4; assay type: ADME
# [14] = biological target: T1, Arachidonate 5-lipoxygenase-activating protein; experiment: Inhibition of FLAP in human peripheral leukocytes assessed as inhibition of calcium ionophore A23187-induced LTB4 production after 3 hr by ELISA in presence of 0.5% human serum albumin; assay type: cell-based
# [15] = biological target: T1, Arachidonate 5-lipoxygenase-activating protein; experiment: Inhibition of FLAP in human peripheral leukocytes assessed as inhibition of calcium ionophore A23187-induced LTB4 production after 5 mins by ELISA in absence of human serum albumin; assay type: cell-based
# [16] = biological target: T1, Arachidonate 5-lipoxygenase-activating protein; experiment: Inhibition of FLAP in human peripheral leukocytes assessed as inhibition of calcium ionophore A23187-induced LTB4 production after 1 hr by ELISA in absence of human serum albumin; assay type: cell-based
# [17] = biological target: T1, Arachidonate 5-lipoxygenase-activating protein; experiment: Inhibition of FLAP in human peripheral leukocytes assessed as inhibition of calcium ionophore A23187-induced LTB4 production after 10 mins by ELISA in presence of 0.5% human serum albumin; assay type: cell-based
# [18] = biological target: T1, Arachidonate 5-lipoxygenase-activating protein; experiment: Inhibition of FLAP in human whole blood assessed as inhibition of calcium ionophore A23187-induced LTB4 production preincubated for 11 hrs by ELISA
# [19] = biological target: T4, Arachidonate 5-lipoxygenase-activating protein (Rattus norvegicus, UniProt P20291); experiment: Inhibition of FLAP in rat whole blood assessed as inhibition of calcium ionophore A23187-induced LTB4 production preincubated for 4 hrs by ELISA; assay type: tissue-based
# T4 sequence (P20291 whole entry): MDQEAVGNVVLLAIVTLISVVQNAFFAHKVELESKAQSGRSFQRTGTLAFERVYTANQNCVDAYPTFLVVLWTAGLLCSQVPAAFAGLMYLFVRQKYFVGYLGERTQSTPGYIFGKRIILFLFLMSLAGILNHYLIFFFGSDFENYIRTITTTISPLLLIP
# [20] = biological target: T4, Arachidonate 5-lipoxygenase-activating protein; experiment: Inhibition of FLAP in rat whole blood assessed as inhibition of calcium ionophore A23187-induced LTB4 production preincubated for 15 mins by ELISA; assay type: tissue-based
# [21] = biological target: T2, Prostaglandin G/H synthase 1; experiment: Inhibition of COX1-mediated TXB2 production in human whole blood after 30 mins by competitive enzyme immunoassay
# T2 sequence (P23219 whole entry): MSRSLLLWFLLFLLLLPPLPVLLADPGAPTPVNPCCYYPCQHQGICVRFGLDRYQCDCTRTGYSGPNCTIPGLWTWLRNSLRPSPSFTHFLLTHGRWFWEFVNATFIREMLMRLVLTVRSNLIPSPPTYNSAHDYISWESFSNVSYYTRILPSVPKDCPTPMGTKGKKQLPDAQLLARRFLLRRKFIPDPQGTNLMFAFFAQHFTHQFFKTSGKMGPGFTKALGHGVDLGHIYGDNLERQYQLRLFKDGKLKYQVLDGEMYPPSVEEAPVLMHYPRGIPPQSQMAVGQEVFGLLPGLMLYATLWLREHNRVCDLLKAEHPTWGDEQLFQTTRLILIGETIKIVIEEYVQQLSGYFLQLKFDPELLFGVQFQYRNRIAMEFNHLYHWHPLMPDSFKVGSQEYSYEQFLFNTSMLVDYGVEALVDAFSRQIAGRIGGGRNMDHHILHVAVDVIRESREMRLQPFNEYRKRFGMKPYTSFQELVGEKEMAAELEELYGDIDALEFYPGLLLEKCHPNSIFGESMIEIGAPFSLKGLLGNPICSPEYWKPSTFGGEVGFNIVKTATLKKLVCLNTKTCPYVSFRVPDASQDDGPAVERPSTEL
# Cytochrome P450 3A4, sequence (P08684 whole entry): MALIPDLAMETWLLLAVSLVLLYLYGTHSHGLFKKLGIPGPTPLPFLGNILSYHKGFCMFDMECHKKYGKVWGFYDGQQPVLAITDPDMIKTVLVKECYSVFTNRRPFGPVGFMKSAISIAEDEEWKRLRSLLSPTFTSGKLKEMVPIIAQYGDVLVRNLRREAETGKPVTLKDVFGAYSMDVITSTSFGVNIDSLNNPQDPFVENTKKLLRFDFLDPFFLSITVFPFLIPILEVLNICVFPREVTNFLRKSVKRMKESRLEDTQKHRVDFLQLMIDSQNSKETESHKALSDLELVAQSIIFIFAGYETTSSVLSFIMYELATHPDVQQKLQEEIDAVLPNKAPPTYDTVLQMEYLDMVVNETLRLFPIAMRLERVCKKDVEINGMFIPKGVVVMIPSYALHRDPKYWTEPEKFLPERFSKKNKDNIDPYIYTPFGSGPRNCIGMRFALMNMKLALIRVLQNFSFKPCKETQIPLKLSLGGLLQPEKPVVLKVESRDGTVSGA
# Cytochrome P450 2D6, sequence (P10635 whole entry): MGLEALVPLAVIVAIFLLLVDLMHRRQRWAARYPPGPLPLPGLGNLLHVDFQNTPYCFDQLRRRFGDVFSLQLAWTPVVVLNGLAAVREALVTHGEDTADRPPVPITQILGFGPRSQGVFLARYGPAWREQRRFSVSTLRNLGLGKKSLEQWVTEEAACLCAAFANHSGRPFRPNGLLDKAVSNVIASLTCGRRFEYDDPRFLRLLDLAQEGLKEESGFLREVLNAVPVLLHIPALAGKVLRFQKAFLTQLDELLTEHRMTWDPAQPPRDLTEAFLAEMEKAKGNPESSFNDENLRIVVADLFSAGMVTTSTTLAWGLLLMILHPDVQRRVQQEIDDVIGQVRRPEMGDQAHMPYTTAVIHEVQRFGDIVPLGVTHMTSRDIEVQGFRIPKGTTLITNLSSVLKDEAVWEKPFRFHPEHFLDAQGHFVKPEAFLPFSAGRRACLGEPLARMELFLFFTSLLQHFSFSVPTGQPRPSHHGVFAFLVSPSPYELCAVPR
# Cytochrome P450 2C9, sequence (P11712 whole entry): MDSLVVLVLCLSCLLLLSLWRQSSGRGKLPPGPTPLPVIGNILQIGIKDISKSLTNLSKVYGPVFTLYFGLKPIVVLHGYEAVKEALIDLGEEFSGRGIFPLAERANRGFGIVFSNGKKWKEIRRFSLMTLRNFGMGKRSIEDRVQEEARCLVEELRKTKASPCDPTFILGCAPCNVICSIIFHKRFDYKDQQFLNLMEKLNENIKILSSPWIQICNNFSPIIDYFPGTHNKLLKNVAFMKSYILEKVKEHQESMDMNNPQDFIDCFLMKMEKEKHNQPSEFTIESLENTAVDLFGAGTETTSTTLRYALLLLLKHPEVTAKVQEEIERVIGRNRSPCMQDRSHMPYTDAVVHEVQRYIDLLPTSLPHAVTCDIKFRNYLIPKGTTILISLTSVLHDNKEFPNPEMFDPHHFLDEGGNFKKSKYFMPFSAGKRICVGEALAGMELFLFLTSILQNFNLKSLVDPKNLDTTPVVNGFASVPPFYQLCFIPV
smiles,measurement,setting,value
COc1ccc(-c2ccc(Cn3c(CC(C)(C)C(=O)O)c(SC(C)(C)C)c4cc(OCc5ccc(C)cn5)ccc43)cc2)cn1,pIC50,[1],8.77
same,pIC50,[2],4.76
same,pIC50,[3],6.48
same,pIC50,[4],4.91
same,pIC50,[5],7.06
same,pIC50,[6],9.30
COc1ccc(-c2ccc(Cn3c(CC(C)(C)C(=O)O)c(SC(C)(C)C)c4cc(OCc5ccc6cc(F)ccc6n5)ccc43)cc2)cn1,Ratio IC50,[7],2
same,pIC50,[1],8.12
same,pIC50,[3],6.13
same,pIC50,[5],6.54
same,pIC50,[6],9.15
COc1cnc(-c2ccc(Cn3c(CC(C)(C)C(=O)[O-])c(SC(C)(C)C)c4cc(OCc5ccc(C)cn5)ccc43)cc2)nc1.[Na+],half-life,[8],102 min
same,Cmax,[9],30.6 µM
same,Vd,[10],0.18 L/kg
same,clearance,[11],3.1 mL/min/kg
same,bioavailability,[12],100%
same,AUC,[13],63000 ng·h/mL
Cc1ccc(COc2ccc3c(c2)c(SC(C)(C)C)c(CC(C)(C)C(=O)O)n3Cc2ccc(-c3ccc(C)cn3)cc2)nc1,pIC50,Cytochrome P450 2C9,4.92
same,pIC50,[1],8.66
same,pIC50,[3],6.55
same,pIC50,Cytochrome P450 2D6,< 4.30
same,pIC50,[5],6.89
same,pIC50,[6],9.30
same,pIC50,Cytochrome P450 3A4,5.07
Cc1ccc(COc2ccc3c(c2)c(SC(C)(C)C)c(CC(C)(C)C(=O)O)n3Cc2ccc(-c3ccc(=O)[nH]c3)cc2)nc1,Ratio IC50,[7],8
same,pIC50,[1],8.08
same,pIC50,[3],5.00
same,pIC50,[5],5.89
same,pIC50,[6],7.03
CC(C)c1ccc2c(c1)c(SC(C)(C)C)c(CC(C)(C)C(=O)O)n2Cc1ccc(Cl)cc1,pIC50,[14],7.57
same,pIC50,[3],5.85
same,pIC50,[15],8.66
same,pIC50,[5],5.96
same,pIC50,[16],8.24
same,pIC50,[17],7.72
same,pIC50,[18],6.00
Cc1ccc(COc2ccc3c(c2)c(SC(C)(C)C)c(CC(C)(C)C(=O)[O-])n3Cc2ccc(-c3ccc(F)cn3)cc2)nc1.[Na+],half-life,[8],114 min
same,Cmax,[9],23.3 µM
same,Vd,[10],0.38 L/kg
same,clearance,[11],4 mL/min/kg
same,bioavailability,[12],100%
same,AUC,[13],77000 ng·h/mL
CC(C)(C)Sc1c(CC(C)(C)C(=O)O)n(Cc2ccc(Cl)cc2)c2ccc(OCc3ccc4ccccc4n3)cc12 [QUIFLAPON SODIUM],pIC50,[1],8.72
same,pIC50,[14],7.92
same,pIC50,[3],6.27
same,pIC50,[19],8.00
same,pIC50,[15],9.00
same,pIC50,[5],6.97
same,pIC50,[16],9.00
same,pIC50,[6],9.30
same,pIC50,[20],6.93
same,pIC50,[17],7.18
same,pIC50,[18],7.10
COc1cnc(-c2ccc(Cn3c(CC(C)(C)C(=O)O)c(SC(C)(C)C)c4cc(OCc5ccc(C)cn5)ccc43)cc2)nc1,pIC50,Cytochrome P450 2C9,5.35
same,pIC50,[21],4.60
same,pIC50,[3],6.79
same,pIC50,Cytochrome P450 2D6,< 4.30
same,pIC50,[5],7.09
same,pIC50,[6],9.22
same,pIC50,Cytochrome P450 3A4,5.06
